Measured values: ChEMBL document CHEMBL1130478, “Mono and bis double ester prodrugs of novel aminomethyl-THF 1-methylcarbapenems” (Bioorg Med Chem Lett, 1997)
In brackets after ≈: the same amount, converted by molar mass.

How the values were obtained:
Assay type in all cases: functional
Morganella morganii [1] = test: In vitro antibacterial activity against M. morganii(GC 2213) without pre-incubation in mouse serum
[2] = target: T1, Dipeptidase 1 (Sus scrofa) (UniProt P22412); test: Relative hydrolysis by hog Dehydropeptidase
T1 sequence (whole entry): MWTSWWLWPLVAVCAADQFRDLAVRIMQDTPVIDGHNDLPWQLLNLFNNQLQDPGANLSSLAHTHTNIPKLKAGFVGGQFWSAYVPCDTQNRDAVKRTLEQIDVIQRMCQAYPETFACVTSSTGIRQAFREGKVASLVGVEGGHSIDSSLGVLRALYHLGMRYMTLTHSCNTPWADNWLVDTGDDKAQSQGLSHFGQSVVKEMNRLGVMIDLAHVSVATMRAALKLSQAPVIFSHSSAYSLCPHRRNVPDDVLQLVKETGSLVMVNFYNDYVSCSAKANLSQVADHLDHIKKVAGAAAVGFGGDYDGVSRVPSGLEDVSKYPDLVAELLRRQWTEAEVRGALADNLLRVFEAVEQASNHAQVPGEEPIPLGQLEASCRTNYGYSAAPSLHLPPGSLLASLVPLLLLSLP

Escherichia coli [3] = test: In vitro antibacterial activity expressed as MIC against E. coli(GC 1792) without pre-incubation in mouse serum
Staphylococcus aureus [4] = test: In vitro antibacterial activity against S. aureus(ATCC 29213) without pre-incubation in mouse serum
Enterobacter cloacae [5] = test: In vitro antibacterial activity against E. cloacae(GC 2209) following preincubation in mouse serum
Mus musculus [6] = test: Antibacterial activity against Escherichia coli (311) infection in mice after single subcutaneous dose, activity expressed as ED50; conditions: sc
Enterococcus faecalis [7] = test: In vitro antibacterial activity against E. faecalis(GC 842) following pre-incubation in mouse serum
Morganella morganii [8] = test: In vitro antibacterial activity against M. morganii(GC 2213) following pre-incubation in mouse serum
[9] = test system: Stenotrophomonas maltophilia; test: In vitro antibacterial activity against X. maltophilia(GC 562) without pre-incubation in mouse serum
Citrobacter freundii [10] = test: In vitro antibacterial activity against C. freundii(GC 2211) following pre-incubation in mouse serum
[11] = test system: Stenotrophomonas maltophilia; test: In vitro antibacterial activity against X. maltophilia(GC 562) following pre-incubation in mouse serum
Enterococcus faecium [12] = test: In vitro for antibacterial activity against E. faecium(GC 1182) without pre-incubation in mouse serum
Pseudomonas aeruginosa [13] = test: In vitro antibacterial activity against P. aeruginosa(GC 1544 oprd) following pre-incubation in mouse serum
Staphylococcus aureus [14] = test: In vitro antibacterial activity against S. aureus(GC 2220 MRSA) following pre-incubation in mouse serum
Staphylococcus aureus [15] = test: In vitro antibacterial activity against S aureus(ATCC 29213) following preincubation in mouse serum
Staphylococcus aureus [16] = test: In vitro antibacterial activity against S. aureus(GC 2220 MRSA) without pre-incubation in mouse serum
Escherichia coli [17] = test: In vitro antibacterial activity expressed as MIC against Escherichia coli (ATCC 25922) following pre-incubation in mouse serum
Citrobacter freundii [18] = test: In vitro antibacterial activity against C. freundii(GC 2211) without preincubation in mouse serum
Escherichia coli [19] = test: In vitro antibacterial activity expressed as MIC against E. coli(GC 2205) without pre-incubation in mouse serum
[20] = test system: Acinetobacter calcoaceticus; test: In vitro antibacterial activity against Acinetobacter calcoaceticus (GC 756) without preincubation in mouse serum
[21] = test system: Acinetobacter calcoaceticus; test: In vitro antibacterial activity against Acinetobacter calcoaceticus (GC 756) following preincubation in mouse serum
Enterobacter cloacae [22] = test: In vitro antibacterial activity against E. cloacae(GC 2209) without pre-incubation in mouse serum
Escherichia coli [23] = test: In vitro antibacterial activity expressed as MIC against Escherichia coli (ATCC 25922) without pre-incubation in mouse serum
Pseudomonas aeruginosa [24] = test: In vitro antibacterial activity against Pseudomonas aeruginosa (ATCC 27853) following pre-incubation in mouse serum
Pseudomonas aeruginosa [25] = test: In vitro antibacterial activity against Pseudomonas aeruginosa (ATCC 27853) without pre-incubation in mouse serum
Pseudomonas aeruginosa [26] = test: In vitro antibacterial activity against P. aeruginosa(GC 1544 oprd) without pre-incubation in mouse serum
Enterococcus faecium [27] = test: In vitro for antibacterial activity against E. faecium(GC 1182) following pre-incubation in mouse serum
Enterococcus faecalis [28] = test: In vitro antibacterial activity against E. faecalis(GC 842) without pre-incubation in mouse serum
Mus musculus [29] = test: Antibacterial activity against Escherichia coli (311) infection in mice after single oral dose, activity expressed as ED50
Escherichia coli [30] = test: In vitro antibacterial activity expressed as MIC against E. coli(GC 2205) following pre-incubation in mouse serum
Escherichia coli [31] = test: In vitro antibacterial activity expressed as MIC against E. coli(GC 1792) following pre-incubation in mouse serum

SMILES | MIC (Morganella morganii [1]) [µg/mL] | Relative hydrolysis [2] | MIC (Escherichia coli [3]) [µg/mL] | MIC (Staphylococcus aureus [4]) [µg/mL] | MIC (Enterobacter cloacae [5]) [µg/mL] | ED50 (Mus musculus [6]) [mg/kg] | MIC (Enterococcus faecalis [7]) [µg/mL] | MIC (Morganella morganii [8]) [µg/mL] | MIC [9] [µg/mL] | MIC (Citrobacter freundii [10]) [µg/mL] | MIC [11] [µg/mL] | MIC (Enterococcus faecium [12]) [µg/mL] | MIC (Pseudomonas aeruginosa [13]) [µg/mL] | MIC (Staphylococcus aureus [14]) [µg/mL] | MIC (Staphylococcus aureus [15]) [µg/mL] | MIC (Staphylococcus aureus [16]) [µg/mL] | MIC (Escherichia coli [17]) [µg/mL] | MIC (Citrobacter freundii [18]) [µg/mL] | MIC (Escherichia coli [19]) [µg/mL] | MIC [20] [µg/mL] | other results
CCCC(=O)OCOC(=O)NC[C@H]1OCC[C@H]1SC1=C(C(=O)[O-])N2C(=O)[C@H]([C@@H](C)O)C2[C@H]1C.[Na+] (stereo partly drawn) | 2 | 5.9 | 0.5 | 0.12 | 0.06 | 0.26 | 1 | 0.5 | > 128 | 0.12 | > 128 | 128 | 16 | 1 | 0.03 | 8 | < 0.06 | 4 | < 0.06 | 32 | MIC [21]: 2 µg/mL; MIC (Enterobacter cloacae [22]): 2 µg/mL; MIC (Escherichia coli [23]): 0.5 µg/mL; MIC (Pseudomonas aeruginosa [24]): 8 µg/mL; MIC (Pseudomonas aeruginosa [25]): 64 µg/mL; MIC (Pseudomonas aeruginosa [26]): > 128 µg/mL; MIC (Enterococcus faecium [27]): 64 µg/mL; MIC (Enterococcus faecalis [28]): 2 µg/mL; ED50 (Mus musculus [29]): 3.4 mg/kg; MIC (Escherichia coli [30]): < 0.06 µg/mL; MIC (Escherichia coli [31]): < 0.06 µg/mL
CCOC(=O)OCOC(=O)C1=C(S[C@@H]2CCO[C@@H]2CNC(=O)OCOC(=O)C(C)(C)C)[C@H](C)C2[C@@H]([C@@H](C)O)C(=O)N12 (stereo partly drawn) | > 128 | 20 | > 128 | 4 (≈ 6.64 µM) | 0.25 (≈ 0.415 µM) | 0.73 | 4 (≈ 6.64 µM) | 4 (≈ 6.64 µM) | > 128 | 0.5 (≈ 0.83 µM) | > 128 | > 128 | 64 (≈ 106 µM) | 2 (≈ 3.32 µM) | 0.12 (≈ 0.199 µM) | 64 (≈ 106 µM) | 0.06 (≈ 0.0996 µM) | > 128 | 1 (≈ 1.66 µM) | > 128 | MIC [21]: 8 µg/mL (≈ 13.3 µM); MIC (Enterobacter cloacae [22]): > 128 µg/mL; MIC (Escherichia coli [23]): 128 µg/mL (≈ 212 µM); MIC (Pseudomonas aeruginosa [24]): 32 µg/mL (≈ 53.1 µM); MIC (Pseudomonas aeruginosa [25]): > 128 µg/mL; MIC (Pseudomonas aeruginosa [26]): > 128 µg/mL; MIC (Enterococcus faecium [27]): > 128 µg/mL; MIC (Enterococcus faecalis [28]): 64 µg/mL (≈ 106 µM); ED50 (Mus musculus [29]): 0.96 mg/kg; MIC (Escherichia coli [30]): 0.12 µg/mL (≈ 0.199 µM); MIC (Escherichia coli [31]): 0.12 µg/mL (≈ 0.199 µM)
CCOC(=O)OCOC(=O)C1=C(S[C@@H]2CCO[C@@H]2CNC(=O)OC(C)OC(C)=O)[C@H](C)C2[C@@H]([C@@H](C)O)C(=O)N12 (stereo partly drawn) | 32 (≈ 55.7 µM) | 4.9 | 8 (≈ 13.9 µM) | 8 (≈ 13.9 µM) | 0.12 (≈ 0.209 µM) | 0.59 | 2 (≈ 3.48 µM) | 1 (≈ 1.74 µM) | > 128 | 0.25 (≈ 0.435 µM) | > 128 | > 128 | 32 (≈ 55.7 µM) | 2 (≈ 3.48 µM) | 0.03 (≈ 0.0522 µM) | > 128 | < 0.06 | 128 (≈ 223 µM) | 1 (≈ 1.74 µM) | > 128 | MIC [21]: 4 µg/mL (≈ 6.96 µM); MIC (Enterobacter cloacae [22]): 64 µg/mL (≈ 111 µM); MIC (Escherichia coli [23]): 4 µg/mL (≈ 6.96 µM); MIC (Pseudomonas aeruginosa [24]): 16 µg/mL (≈ 27.8 µM); MIC (Pseudomonas aeruginosa [25]): > 128 µg/mL; MIC (Pseudomonas aeruginosa [26]): > 128 µg/mL; MIC (Enterococcus faecium [27]): 128 µg/mL (≈ 223 µM); MIC (Enterococcus faecalis [28]): 64 µg/mL (≈ 111 µM); ED50 (Mus musculus [29]): 0.83 mg/kg; MIC (Escherichia coli [30]): 0.06 µg/mL (≈ 0.104 µM); MIC (Escherichia coli [31]): < 0.06 µg/mL
